Assay results reported in ChEMBL document CHEMBL1201861, “Genomics of Drug Sensitity in Cancer screening data, Wellcome Trust Sanger Institute”.

Legend:
ECC4 = test: cells; format: functional, cell-based, Homo sapiens; conditions: Homo sapiens, ECC4;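 further: growth inhibition of ECC4 cells, read out with a cell viability assay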
Description: SANGER: Inhibition of human ECC4 cell growth in a cell viability assay.

RPMI-6666 = test: cells; format: functional, cell-based, Homo sapiens; conditions: Homo sapiens, RPMI-6666
Description: SANGER: Inhibition of human RPMI-6666 cell growth in a cell viability assay.

SKM-1 = test: SANGER: Inhibition of human SKM-1 cell growth in a cell viability assay.; format: functional, cell-based
L-540 = test: cells; format: functional, cell-based, Homo sapiens; conditions: Homo sapiens, L-540;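 further: growth inhibition of the human L-540 cell line, read out with a viability assay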
Description: SANGER: Inhibition of human L-540 cell growth in a cell viability assay.

ST486 = test: SANGER: Inhibition of human ST486 cell growth in a cell viability assay.; format: functional, cell-based; conditions: Homo sapiens, ST486
NCI-H345 = test: cells; format: functional, cell-based, Homo sapiens; conditions: Homo sapiens, NCI-H345;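 further: growth inhibition of NCI-H345 cells measured with a cell viability assay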
Description: SANGER: Inhibition of human NCI-H345 cell growth in a cell viability assay.

Kasumi 1 = test: cells; format: functional, cell-based, Homo sapiens; conditions: Homo sapiens, Kasumi 1;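 further: growth inhibition of human Kasumi-1 cells, read out by a cell viability assay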
Description: SANGER: Inhibition of human KASUMI-1 cell growth in a cell viability assay.

LC-1F = test: cells; format: functional, cell-based, Homo sapiens; conditions: Homo sapiens, LC-1F;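 further: growth inhibition of human LC-1F cells, read out with a cell viability assay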
Description: SANGER: Inhibition of human LC-1F cell growth in a cell viability assay.

BOKU = test: cells; format: functional, cell-based, Homo sapiens; conditions: Homo sapiens, BOKU;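 further: growth inhibition of the human BOKU cell line, read out by a cell viability assay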
Description: SANGER: Inhibition of human BOKU cell growth in a cell viability assay.

SCC-9 = test: cells; format: functional, cell-based, Homo sapiens; conditions: Homo sapiens, SCC-9;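 further: Read-out is a cell viability assay, with values giving inhibition of cell growth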
Description: SANGER: Inhibition of human SCC-9 cell growth in a cell viability assay.

KU-19-19 = test: cells; format: functional, cell-based, Homo sapiens; conditions: Homo sapiens, KU-19-19
Description: SANGER: Inhibition of human KU-19-19 cell growth in a cell viability assay.

SNU-423 = test: cells; format: functional, cell-based, Homo sapiens; conditions: Homo sapiens, SNU-423
Description: SANGER: Inhibition of human SNU-423 cell growth in a cell viability assay.

CAPAN-1 = test: cells; format: functional, cell-based, Homo sapiens; conditions: Homo sapiens, CAPAN-1;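 further: growth suppression of CAPAN-1 cells, read out by a cell viability assay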
Description: SANGER: Inhibition of human CAPAN-1 cell growth in a cell viability assay.

NCI-H2347 = test: cells; format: functional, cell-based, Homo sapiens; conditions: Homo sapiens, NCI-H2347;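 further: growth inhibition of the cell line, read out with a cell viability assay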
Description: SANGER: Inhibition of human NCI-H2347 cell growth in a cell viability assay.

IGROV-1 = test: cells; format: functional, cell-based, Homo sapiens; conditions: Homo sapiens, IGROV-1;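 further: reduction of IGROV-1 cell growth, read out with a viability assay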
Description: SANGER: Inhibition of human IGROV-1 cell growth in a cell viability assay.

EFO-27 = test: cells; format: functional, cell-based, Homo sapiens; conditions: Homo sapiens, EFO-27;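 further: growth inhibition of EFO-27 cells, read out with a cell viability assay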
Description: SANGER: Inhibition of human EFO-27 cell growth in a cell viability assay.

LU-135 = test: cells; format: functional, cell-based, Homo sapiens; conditions: Homo sapiens, LU-135
Description: SANGER: Inhibition of human LU-135 cell growth in a cell viability assay.

SW948 = test: cells; format: functional, cell-based, Homo sapiens; conditions: Homo sapiens, SW948;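 further: growth inhibition of SW948 cells, read out with a cell viability assay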
Description: SANGER: Inhibition of human SW948 cell growth in a cell viability assay.

UACC-62 = test: cells; format: functional, cell-based, Homo sapiens; conditions: Homo sapiens, UACC-62;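 further: growth inhibition of human UACC-62 cells, read out by a cell viability assay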
Description: SANGER: Inhibition of human UACC-62 cell growth in a cell viability assay.

OVCAR-5 = test: cells; format: functional, cell-based, Homo sapiens; conditions: Homo sapiens, OVCAR-5;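 further: growth inhibition of human OVCAR-5 cells, read out with a cell viability assay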
Description: SANGER: Inhibition of human OVCAR-5 cell growth in a cell viability assay.

ACHN = test: cells; format: functional, cell-based, Homo sapiens; conditions: Homo sapiens, ACHN;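 further: cell viability read-out used to gauge how strongly growth of human ACHN cells is suppressed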
Description: SANGER: Inhibition of human ACHN cell growth in a cell viability assay.

Huh-7 = test: cells; format: functional, cell-based, Homo sapiens; conditions: Homo sapiens, Huh-7;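 further: HuH-7 cell growth inhibition, read out with a cell viability assay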
Description: SANGER: Inhibition of human HuH-7 cell growth in a cell viability assay.

TCC-SUP = test: cells; format: functional, cell-based, Homo sapiens; conditions: Homo sapiens, TCC-SUP;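 further: growth inhibition of TCC-SUP cells, read out with a cell viability assay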
Description: SANGER: Inhibition of human TCCSUP cell growth in a cell viability assay.

KP-4 = test: cells; format: functional, cell-based, Homo sapiens; conditions: Homo sapiens, KP-4;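 further: human KP-4 cells, with growth inhibition read out through a cell viability assay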
Description: SANGER: Inhibition of human KP-4 cell growth in a cell viability assay.

H9 = test: cells; format: functional, cell-based, Homo sapiens; conditions: Homo sapiens, H9
Description: SANGER: Inhibition of human H9 cell growth in a cell viability assay.

HCC1395 = test: cells; format: functional, cell-based, Homo sapiens; conditions: Homo sapiens, HCC1395;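 further: growth inhibition of HCC1395 cells, read out by a cell viability assay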
Description: SANGER: Inhibition of human HCC1395 cell growth in a cell viability assay.

U-251 = test: cells; format: functional, cell-based, Homo sapiens; conditions: Homo sapiens, U-251;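 further: growth inhibition of human U-251 cells, read out through a cell viability assay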
Description: SANGER: Inhibition of human U251 cell growth in a cell viability assay.

Detroit 562 = test: cells; format: functional, cell-based, Homo sapiens; conditions: Homo sapiens, Detroit 562;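 further: growth inhibition of human Detroit 562 cells, read out by a cell viability assay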
Description: SANGER: Inhibition of human Detroit562 cell growth in a cell viability assay.

TI-73 = test: cells; format: functional, cell-based, Homo sapiens; conditions: Homo sapiens, TI-73;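 further: cell viability assay measuring how much compounds suppress growth of the cultured cell line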
Description: SANGER: Inhibition of human TI-73 cell growth in a cell viability assay.

8305C = test: cells; format: functional, cell-based, Homo sapiens; conditions: Homo sapiens, 8305C
Description: SANGER: Inhibition of human 8305C cell growth in a cell viability assay.

FTC-133 = test: cells; format: functional, cell-based, Homo sapiens; conditions: Homo sapiens, FTC-133
COLO-678 = test: cells; format: functional, cell-based, Homo sapiens; conditions: Homo sapiens, COLO-678
Description: SANGER: Inhibition of human COLO-678 cell growth in a cell viability assay.

BFTC-909 = test: cells; format: functional, cell-based, Homo sapiens; conditions: Homo sapiens, BFTC-909
Description: SANGER: Inhibition of human BFTC-909 cell growth in a cell viability assay.

GCT = test: cells; format: functional, cell-based, Homo sapiens; conditions: Homo sapiens, GCT;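 further: GCT cell line proliferation inhibition, read out with a cell viability assay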
Description: SANGER: Inhibition of human GCT cell growth in a cell viability assay.

MEL-JUSO = test: cells; format: functional, cell-based, Homo sapiens; conditions: Homo sapiens, MEL-JUSO;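 further: growth inhibition of human MEL-JUSO cells, read out with a cell viability assay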
Description: SANGER: Inhibition of human MEL-JUSO cell growth in a cell viability assay.

SMILES | IC50 (ECC4) [µM] | IC50 (RPMI-6666) [µM] | IC50 (SKM-1) [µM] | IC50 (L-540) [µM] | IC50 (ST486) [µM] | IC50 (NCI-H345) [µM] | IC50 (Kasumi 1) [µM] | IC50 (LC-1F) [µM] | IC50 (BOKU) [µM] | IC50 (SCC-9) [µM] | IC50 (KU-19-19) [µM] | IC50 (SNU-423) [µM] | IC50 (CAPAN-1) [µM] | IC50 (NCI-H2347) [µM] | IC50 (IGROV-1) [µM] | IC50 (EFO-27) [µM] | IC50 (LU-135) [µM] | IC50 (SW948) [µM] | IC50 (UACC-62) [µM] | IC50 (OVCAR-5) [µM] | other results
COc1cc2ncn(-c3cc(OCc4ccccc4S(C)(=O)=O)c(C#N)s3)c2cc1OC [GSK-319347A] | > 5 | > 5 | > 5 | > 5 | > 5 | > 5 | > 5 | > 5 | – | – | – | – | – | – | – | – | – | – | – | – | –
CC[C@H](CO)Nc1nc(NCc2ccccc2)c2ncn(C(C)C)c2n1 [SELICICLIB] | > 16 | 13.9 | > 16 | > 16 | 10.4 | > 16 | > 16 | > 16 | – | – | – | – | – | – | – | – | – | – | – | – | –
CC(=O)O[C@H]1C(=O)[C@@]2(C)[C@H]([C@H](OC(=O)c3ccccc3)[C@]3(O)C[C@H](OC(=O)[C@H](O)[C@@H](NC(=O)c4ccccc4)c4ccccc4)C(C)=C1C3(C)C)[C@]1(OC(C)=O)CO[C@@H]1C[C@@H]2O [PACLITAXEL] | > 0.102 | 0.0215 | > 0.102 | 0.0464 | 0.012 | > 0.102 | > 0.102 | > 0.102 | > 0.102 | – | – | – | – | – | – | – | – | – | – | – | –
CCN(CC)CCNC(=O)c1c(C)[nH]c(/C=C2\C(=O)Nc3ccc(F)cc32)c1C [SUNITINIB] | > 8 | 3.54 | > 8 | > 8 | 6.35 | > 8 | > 8 | > 8 | > 8 | – | – | – | – | – | – | – | – | – | – | – | –
Cc1ccc(-c2c(C(=O)CCl)n(CCCO)c3ncnc(N)c23)cc1 | > 4 | 2.33 | > 4 | > 4 | > 4 | > 4 | > 4 | > 4 | > 4 | – | – | – | – | – | – | – | – | – | – | – | –
CCN(CC)CCCCNc1ncc2cc(-c3cc(OC)cc(OC)c3)c(NC(=O)NC(C)(C)C)nc2n1 [PD-173074] | – | – | – | – | – | – | – | – | – | > 2 | > 2 | > 2 | > 2 | > 2 | > 2 | > 2 | > 2 | > 2 | > 2 | > 2 | IC50 (ACHN): > 2 µM; IC50 (Huh-7): 1.24 µM; IC50 (TCC-SUP): > 2 µM; IC50 (KP-4): > 2 µM; IC50 (H9): > 2 µM; IC50 (HCC1395): > 2 µM; IC50 (U-251): > 2 µM; IC50 (Detroit 562): > 2 µM; IC50 (TI-73): > 2 µM; IC50 (8305C): > 2 µM; IC50 (FTC-133): > 2 µM; IC50 (COLO-678): > 2 µM; IC50 (BFTC-909): > 2 µM; IC50 (GCT): > 2 µM
OCCCNc1cc(-c2ccnc(Nc3cccc(Cl)c3)n2)ccn1 | > 0.256 | 0.0504 | > 0.256 | 0.193 | 0.0312 | > 0.256 | > 0.256 | 0.117 | 0.0543 | – | – | – | – | – | – | – | – | – | – | – | –
CC(C)CCN1c2nc(Nc3cc(F)c(O)c(F)c3)ncc2N(C)C(=O)C1C (centres undefined) | – | – | – | – | – | – | – | – | – | > 5 | 3.6 | > 5 | > 5 | > 5 | > 5 | > 5 | > 5 | > 5 | > 5 | > 5 | IC50 (MEL-JUSO): > 5 µM; IC50 (ACHN): > 5 µM; IC50 (Huh-7): > 5 µM; IC50 (TCC-SUP): > 5 µM; IC50 (KP-4): > 5 µM; IC50 (H9): 0.0602 µM; IC50 (HCC1395): > 5 µM; IC50 (U-251): 2.73 µM; IC50 (Detroit 562): > 5 µM; IC50 (TI-73): > 5 µM; IC50 (8305C): 3.89 µM; IC50 (FTC-133): > 5 µM; IC50 (COLO-678): > 5 µM; IC50 (BFTC-909): > 5 µM; IC50 (GCT): 2.31 µM
N[C@@H](CSC(c1ccccc1)(c1ccccc1)c1ccccc1)C(=O)O [S-TRITYL-L-CYSTEINE] | > 5.12 | > 5.12 | > 5.12 | > 5.12 | 2.09 | > 5.12 | > 5.12 | 3.49 | > 5.12 | – | – | – | – | – | – | – | – | – | – | – | –
COc1cc(-c2nn([C@H]3CC[C@H](N4CCN(C(C)=O)CC4)CC3)c3ncnc(N)c23)ccc1NC(=O)c1cc2ccccc2n1C | > 5.12 | 1.58 | > 5.12 | > 5.12 | > 5.12 | > 5.12 | > 5.12 | > 5.12 | > 5.12 | – | – | – | – | – | – | – | – | – | – | – | –
COc1cc2c(Nc3ccc(NC(=O)c4ccccc4)cc3)ncnc2cc1OCCCN1CCOCC1 | – | – | – | – | – | – | – | – | – | > 4 | > 4 | > 4 | > 4 | > 4 | > 4 | > 4 | 2.66 | > 4 | > 4 | > 4 | IC50 (ACHN): > 4 µM; IC50 (Huh-7): > 4 µM; IC50 (TCC-SUP): > 4 µM; IC50 (KP-4): > 4 µM; IC50 (H9): 0.93 µM; IC50 (HCC1395): > 4 µM; IC50 (U-251): > 4 µM; IC50 (Detroit 562): 1.73 µM; IC50 (TI-73): > 4 µM; IC50 (8305C): > 4 µM; IC50 (FTC-133): > 4 µM; IC50 (COLO-678): > 4 µM; IC50 (BFTC-909): > 4 µM; IC50 (GCT): 3.77 µM
COc1cc(N2CCN(C)CC2)ccc1Nc1ncc2c(n1)N(C)c1ccccc1C(=O)N2C | > 8 | 7.86 | > 8 | > 8 | 3.49 | > 8 | > 8 | > 8 | – | – | – | – | – | – | – | – | – | – | – | – | –
C#Cc1cccc(Nc2ncnc3cc(OCCOC)c(OCCOC)cc23)c1 [ERLOTINIB] | > 2 | > 2 | > 2 | > 2 | > 2 | > 2 | > 2 | 0.606 | – | – | – | – | – | – | – | – | – | – | – | – | –
Cn1cnc2c(F)c(Nc3ccc(Br)cc3Cl)c(C(=O)NOCCO)cc21 [SELUMETINIB] | – | – | – | – | – | – | – | – | – | > 4 | 3.42 | > 4 | > 4 | > 4 | > 4 | 3.33 | > 4 | > 4 | > 4 | > 4 | IC50 (Huh-7): > 4 µM; IC50 (TCC-SUP): > 4 µM; IC50 (H9): 0.0229 µM; IC50 (HCC1395): > 4 µM; IC50 (U-251): > 4 µM; IC50 (Detroit 562): > 4 µM; IC50 (TI-73): > 4 µM; IC50 (8305C): > 4 µM; IC50 (FTC-133): > 4 µM; IC50 (COLO-678): 1.62 µM; IC50 (BFTC-909): > 4 µM; IC50 (GCT): > 4 µM
CC1(C)CNc2cc(NC(=O)c3cccnc3NCc3ccncc3)ccc21 [MOTESANIB] | – | – | – | – | – | – | – | – | – | > 2 | > 2 | > 2 | > 2 | > 2 | > 2 | > 2 | > 2 | > 2 | > 2 | > 2 | IC50 (ACHN): > 2 µM; IC50 (Huh-7): > 2 µM; IC50 (TCC-SUP): > 2 µM; IC50 (KP-4): > 2 µM; IC50 (H9): > 2 µM; IC50 (HCC1395): > 2 µM; IC50 (U-251): > 2 µM; IC50 (Detroit 562): > 2 µM; IC50 (TI-73): > 2 µM; IC50 (8305C): > 2 µM; IC50 (FTC-133): > 2 µM; IC50 (COLO-678): > 2 µM; IC50 (BFTC-909): > 2 µM; IC50 (GCT): > 2 µM
COc1cc2ncn(-c3cc(OCc4ccccc4C(F)(F)F)c(C(N)=O)s3)c2cc1OC [GW843682X] | > 0.256 | 0.0826 | > 0.256 | 0.121 | 0.0204 | > 0.256 | > 0.256 | > 0.256 | 0.135 | – | – | – | – | – | – | – | – | – | – | – | –
